The test system of one assay is HCT 116 cells. As to the kind of experiment: Cell proliferation assay (HCT 116), Cell-titer Glo. Conditions: Homo sapiens, 120 h incubation. It is filed as cell-based. On the procedure:
(§1) The HCT 116 cells were paved in a 96-well plate at 1200 cells, 160 μL/well. After incubating overnight, the compound solutions of gradient concentration was prepared, and 40 μL of DMSO solution of the test compound of each concentration was added to the cells of each well. The final concentration of the compound was 30000, 10000, 3333.3, 1111.1, 370.4, 123.5, 41.2, 13.7, 4.6, 0 nM (the final concentration of DMSO was 0.5%). 5% CO2 was incubated for 120 h at 37° C. 50 μL of Cell-titer Glo working solution was added to each well, shaked and mixed, and incubated at room temperature for 10 minutes. The multi-functional microplate reader read the luminescence value, and converted the luminescence value reading into inhibition percentage. Inhibition percentage=(maximum value−reading)/(maximum value−minimum value)*100.
The “maximum value” was the DMSO control, the “minimum value” indicated the cell-free control group.
(§2) Graphpad Prism software was used to perform curve fitting and obtain IC50 value.

The next assay has as its system COLO205 cells. The experiment in a line: Cell proliferation assay (COLO205), Cell-titer Glo. Conditions: Homo sapiens, COLO 205, 120 h incubation. It is filed as cell-based. On the procedure:
as §1, with “COLO205” for “The HCT 116”, “spread into” for “paved in”, “135 μL/well at 2000 cells.” for “1200 cells, 160 μL/well.”, “overnight,” for “overnight, the”, “added 15” for “40”, “concentration” for “concentration was added”
The “maximum value” was the DMSO control, the “minimum value” indicates the cell-free control group.
as §2

The target of another assay is ERK2 (Homo sapiens, UniProt P28482). As to the kind of experiment: Kinase assay (Caliper, FAM-labeled peptide), ERK2. It is filed as biochemical. The procedure, abridged:
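Kinase preincubated 10 min at room temperature with serially diluted compound before FAM-labeled peptide plus ATP added; reaction run at 28 °C, then stopped. Substrate conversion read by Caliper mobility shift, normalized to DMSO and low controls, curve-fitted for IC50.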

SMILES strings stand for the structures.

One may read the IC50 as the midpoint of a concentration-inhibition curve. Read a low IC50 as inhibition by little substance.

ERK2, sequence (P28482 whole entry): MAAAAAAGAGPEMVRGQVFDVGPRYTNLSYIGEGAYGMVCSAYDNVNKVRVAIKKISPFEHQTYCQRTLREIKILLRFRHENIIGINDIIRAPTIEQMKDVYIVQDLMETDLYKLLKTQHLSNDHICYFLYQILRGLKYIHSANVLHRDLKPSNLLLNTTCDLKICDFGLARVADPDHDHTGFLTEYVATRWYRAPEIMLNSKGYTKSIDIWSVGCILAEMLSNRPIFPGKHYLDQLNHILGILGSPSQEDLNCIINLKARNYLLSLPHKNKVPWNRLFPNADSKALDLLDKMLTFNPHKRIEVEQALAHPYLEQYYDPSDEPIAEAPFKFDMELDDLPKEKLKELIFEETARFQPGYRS

On to `Cc1cnc(Nc2ccnn2C)cc1-c1cc2n(c1)CCN(Cc1cc(F)ccc1CO)C2=O` [Example 152, 2-(5-fluoro-2-(hydroxymethyl)benzyl)-7-(5-methyl-2-((1-methyl-1h-pyrazole-5-yl)amino)pyridine-4-yl)-3,4-dihydropyrrolo[1,2-a] pyrazine-1(2H)-one], for which the IC50 in the assay with HCT 116 cells is 7.6 nM; with COLO205 cells, 14.3 nM; on ERK2 it was 0.3 nM.

In the case of `Cn1nccc1Nc1cc(-c2cc3n(c2)CCN(Cc2cc(F)cc(F)c2CO)C3=O)c(Cl)cn1` [Example 148, 7-(5-chloro-2-((1-methyl-1h-pyrazole-5-yl)amino)pyridine-4-yl)-2-(3,5-difluoro-2-(hydroxymethyl)benzyl)-3,4-dihydropyrrolo[1,2-a] pyrazine-1(2H)-one], the IC50 with HCT 116 cells came out at 6.3 nM; with COLO205 cells, 12.9 nM; against ERK2 it was 0.7 nM.

With `COC[C@H]1Cn2cc(-c3cc(Nc4ccnn4C)ncc3Cl)cc2C(=O)N1Cc1cc(F)c(F)cc1CO` [Example 95, (R)-7-(5-chloro-2-((1-methyl-1h-pyrazole-5-yl)amino)pyridine-4-yl)-2-(4,5-difluoro-2-(hydroxymethyl)benzyl)-3-(methoxymethyl)-3,4-dihydropyrrolo[1,2-a] pyrazine-1(2H)-one], the values for the IC50 in the assay on HCT 116 cells, in the assay with COLO205 cells and against ERK2 were 6.9 nM, 6.9 nM and 0.9 nM, respectively.

With `CCn1nccc1Nc1cc(-c2cc3n(c2)C[C@H](COC)N(Cc2cc(F)ccc2CO)C3=O)c(Cl)cn1` [Example 52, (R)-7-(5-chloro-2-((1-ethyl-1H-pyrazol-5-yl)amino)pyridin-4-yl)-2-(5-fluoro-2-(hydroxymethyl)benzyl)-3-(methoxymethyl)-3,4-dihydropyrrolo[1,2-a]pyrazine-1(2H)-one], the IC50 in the assay with HCT 116 cells was determined as 10.7 nM; with COLO205 cells, 13.6 nM.

With `COC[C@H]1Cn2cc(-c3nc(Nc4ccnn4C)ncc3C)nc2C(=O)N1Cc1ccc(F)c(F)c1` [AZD0364, reference compound], the IC50 came out at 83 nM in the assay with HCT 116 cells and 72.4 nM with COLO205 cells.

On to `Cn1nccc1Nc1cc(-c2cc3n(c2)CCN(Cc2cccc(F)c2CO)C3=O)c(Cl)cn1` [Example 150, 7-(5-chloro-2-((1-methyl-1h-pyrazole-5-yl)amino)pyridine-4-yl)-2-(3-fluoro-2-(hydroxymethyl)benzyl)-3,4-dihydropyrrolo[1,2-a] pyrazine-1(2H)-one], for which the concentration for half-maximal inhibition (IC50) came out at 9.5 nM in the assay with HCT 116 cells and 17.8 nM in the assay with COLO205 cells.

As for `COC[C@H]1Cn2cc(-c3cc(Nc4ccnn4C)ncc3Cl)cc2C(=O)N1Cc1cccc(F)c1CO` [Example 98, (R)-7-(5-chloro-2-((1-methyl-1h-pyrazole-5-yl)amino)pyridine-4-yl)-2-(3-fluoro-2-(hydroxymethyl)benzyl)-3-(methoxymethyl)-3,4-dihydropyrrolo[1,2-a] pyrazine-1(2H)-one], the IC50 with HCT 116 cells is 9 nM; in the assay with COLO205 cells, 10.7 nM.

Turning to `COC[C@H]1Cn2cc(-c3cc(Nc4ccnn4C)ncc3C)cc2C(=O)N1Cc1cc(F)ccc1CO` [Example 102, (R)-2-(5-fluoro-2-(hydroxymethyl)benzyl)-3-(methoxymethyl)-7-(5-methyl-2-((1-methyl-1h-pyrazole-5-yl)amino)pyridine-4-yl)-3,4-dihydropyrrolo[1,2-a] pyrazine-1(2H)-one], the IC50 with HCT 116 cells came out at 11.6 nM; in the assay with COLO205 cells, 6.4 nM.

Turning to `COC[C@H]1Cn2cc(-c3cc(Nc4ccnn4C)ncc3C(F)(F)F)cc2C(=O)N1Cc1cc(F)ccc1CO` [Example 100, (R)-2-(5-fluoro-2-(hydroxymethyl)benzyl)-3-(methoxymethyl)-7-(2-((1-methyl-1h-pyrazole-5-yl)amino)-5-(trifluoromethyl)pyridin-4-yl)-3,4-dihydropyrrolo [1,2-a]pyrazine-1(2H)-one], the IC50 worked out at 19.9 nM with HCT 116 cells and 19 nM in the assay with COLO205 cells.
